This is an account of results in ChEMBL document CHEMBL5390237, “Discovery of Selective Histone Deacetylase 1 and 2 Inhibitors: Screening of a Focused Library Constructed by Click Chemistry, Kinetic Binding Analysis, and Biological Evaluation” (J Med Chem, 2023).

For the assay, the target named is Histone deacetylase 2 (Homo sapiens, UniProt Q92769). The assay is described as follows: Inhibition of full-length recombinant human C-terminal GST tagged HDAC2 expressed in Sf9 insect cells using aminoluciferin peptide substrate at 100 nM preincubated for 3 hrs followed by substrate addition and measured after 30 mins by HDAC-Glo I/II chemiluminescence assay. The following applies: time 3.5 hrs.
Sequence of Histone deacetylase 2 (Q92769 whole entry): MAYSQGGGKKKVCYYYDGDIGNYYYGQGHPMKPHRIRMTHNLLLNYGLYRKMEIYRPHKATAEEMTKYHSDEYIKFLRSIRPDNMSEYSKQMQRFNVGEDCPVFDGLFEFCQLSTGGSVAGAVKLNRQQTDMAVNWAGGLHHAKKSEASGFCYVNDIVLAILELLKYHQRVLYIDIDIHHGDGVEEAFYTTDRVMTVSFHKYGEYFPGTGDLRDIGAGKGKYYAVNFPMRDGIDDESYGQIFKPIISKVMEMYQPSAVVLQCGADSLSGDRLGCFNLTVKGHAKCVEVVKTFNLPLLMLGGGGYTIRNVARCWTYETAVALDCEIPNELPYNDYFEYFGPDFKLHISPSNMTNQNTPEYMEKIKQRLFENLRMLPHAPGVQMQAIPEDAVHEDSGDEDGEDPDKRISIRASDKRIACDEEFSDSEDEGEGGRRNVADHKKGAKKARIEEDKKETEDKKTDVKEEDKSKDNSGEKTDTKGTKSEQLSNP
Usually inhibition stands for the relative decrease from the control value, in per cent. As for `Nc1ccc(-c2cccs2)cc1NC(=O)c1cccc(-c2cn(CCc3cccc4ccccc34)nn2)c1`, the inhibition amounted to 0%.

As to `Nc1ccc(-c2ccsc2)cc1NC(=O)c1cn(CCc2ccc(C(F)(F)F)cc2)nn1`, the inhibition was found to be 0%.

Take `Nc1ccc(-n2cc(C(=O)Nc3cc(-c4ccccc4)ccc3N)nn2)cc1`: the inhibition came to 11%.

Consider `Nc1ccc(-c2cccs2)cc1NC(=O)c1ccc(-c2cn(/C=C/c3ccccc3)nn2)cc1`, for which the inhibition was determined as 0%.

In the case of `Nc1ccc(-c2cccs2)cc1NC(=O)c1cccc(-c2cn(Cc3nc4ccccc4[nH]3)nn2)c1`, the inhibition amounted to 32%.

`Nc1ccc(-c2ccc(F)cc2)cc1NC(=O)CCc1cn(CCc2ccc(F)cc2)nn1`: the inhibition was 17%.

Regarding `Nc1ccc(-c2ccc(F)cc2)cc1NC(=O)c1cn(CCC23CC4CC(CC(C4)C2)C3)nn1`, the inhibition was determined as 2%.

Turning to `Cc1cccc(C)c1NC(=O)Cn1cc(CCC(=O)Nc2cc(-c3ccccc3)ccc2N)nn1`, the inhibition amounted to 19%.

As for `Nc1ccc(-c2ccccc2)cc1NC(=O)c1cn(CCCCC(=O)O)nn1`, the inhibition amounted to 0%.

For `Nc1ccc(-c2cccnc2)cc1NC(=O)CCc1cn(CCc2ccc([N+](=O)[O-])cc2)nn1`, the inhibition turned out to be 3%.

As to `Cc1csc(CCn2cc(-c3ccc(C(=O)Nc4cc(-c5cccs5)ccc4N)s3)nn2)n1`, the inhibition was determined as 74%.

In the case of `Nc1ccc(-c2cccs2)cc1NC(=O)c1ccc(-c2cn(-c3ccc(O)cc3)nn2)s1`, the inhibition was determined as 20%.

For the molecule `Nc1ccc(-c2ccsc2)cc1NC(=O)CCc1cn(CCc2c[nH]c3ccccc23)nn1`, the inhibition turned out to be 22%.

For `Nc1ccc(-c2cccs2)cc1NC(=O)CCc1cn(CC(=O)Nc2ccc(F)cc2)nn1`, the inhibition was found to be 30%.

Turning to `CCc1ccc(Cn2cc(-c3ccc(C(=O)Nc4cc(-c5cccs5)ccc4N)cc3)nn2)cc1`, the inhibition came to 0%.

Consider `Nc1ccc(-c2ccsc2)cc1NC(=O)CCc1cn(CCC2CCCC2)nn1`, for which the inhibition worked out at 0%.

On to `Nc1ccc(-c2cccs2)cc1NC(=O)c1cn(CCC2CCCC2)nn1`, for which the inhibition amounted to 0%.

As for `Nc1ccc(-n2cc(C(=O)Nc3cc(-c4ccc(F)cc4)ccc3N)nn2)cc1`, the inhibition was 42%.

For the molecule `Nc1ccc(-c2ccc(F)cc2)cc1NC(=O)CCc1cn(CCN2CCc3ccccc3C2)nn1`, the inhibition turned out to be 18%.

On to `Nc1ccc(-c2cccs2)cc1NC(=O)c1cn(CCc2ccc(C(F)(F)F)cc2)nn1`, for which the inhibition was 9%.

As to `Nc1ccc(-c2cccs2)cc1NC(=O)c1ccc(-c2cn(CCc3ccccc3[N+](=O)[O-])nn2)s1`, the inhibition is 16%.

Regarding `COc1ccccc1CCn1cc(C(=O)Nc2cc(-c3ccsc3)ccc2N)nn1`, the inhibition came to 0%.

With `Nc1ccc(-c2ccccc2)cc1NC(=O)CCc1cn(Cc2ccc(Oc3ccccc3)cc2)nn1`, the inhibition came out at 0%.

With `Cc1cccc(CCn2cc(C(=O)Nc3cc(-c4ccsc4)ccc3N)nn2)c1`, the inhibition was determined as 7%.

For the molecule `Nc1ccc(-c2cccs2)cc1NC(=O)c1ccc(-c2cn(CCc3cccc4ccccc34)nn2)cc1`, the inhibition was found to be 0%.

As for `Nc1ccc(-c2ccc(F)cc2)cc1NC(=O)c1cn(CCCCCCCC(=O)O)nn1`, the inhibition was found to be 29%.

Regarding `Nc1ccc(-c2ccc(F)cc2)cc1NC(=O)CCc1cn(CCN2CCOCC2)nn1`, the inhibition was 0%.

Regarding `Nc1ccc(-c2ccsc2)cc1NC(=O)CCc1cn(CCc2cccc(C(F)(F)F)c2)nn1`, the inhibition is 2%.

For `Nc1ccc(-c2cccnc2)cc1NC(=O)CCc1cn(Cc2cccc(-c3ccccc3)c2)nn1`, the inhibition worked out at 0%.

Consider `Nc1ccc(-c2ccc(F)cc2)cc1NC(=O)CCc1cn(-c2ccc([N+](=O)[O-])cc2)nn1`, for which the inhibition is 7%.

With `Nc1ccc(-c2ccc(F)cc2)cc1NC(=O)c1cn(Cc2ccc3ccccc3c2)nn1`, the inhibition is 8%.

With `Cc1ccc(CCn2cc(-c3ccc(C(=O)Nc4cc(-c5cccs5)ccc4N)s3)nn2)cc1`, the inhibition was 22%.

Regarding `Nc1ccc(-c2cccs2)cc1NC(=O)c1ccc(-c2cn(Cc3ccc(OC(F)(F)F)cc3)nn2)cc1`, the inhibition is 5%.

On to `Nc1ccc(-c2ccccc2)cc1NC(=O)c1cn(CCc2cccc(F)c2)nn1`, for which the inhibition was 0%.

As to `Nc1ccc(-c2cccs2)cc1NC(=O)c1cccc(-c2cn(Cc3ccc4ccccc4c3)nn2)c1`, the inhibition turned out to be 6%.

`Nc1ccc(-c2ccsc2)cc1NC(=O)CCc1cn(CCc2cccc([N+](=O)[O-])c2)nn1`: the inhibition turned out to be 36%.

Consider `Nc1ccc(-c2ccccc2)cc1NC(=O)CCc1cn(CC(=O)c2ccccc2)nn1`, for which the inhibition was 18%.

Turning to `Nc1ccc(-c2ccsc2)cc1NC(=O)c1cn(Cc2ccc(-c3ccccc3)cc2)nn1`, the inhibition stood at 0%.

Regarding `Nc1ccc(-c2ccccc2)cc1NC(=O)c1cn(Cc2ccc3ccccc3n2)nn1`, the inhibition amounted to 6%.

Regarding `Cc1ccc(CCn2cc(CCC(=O)Nc3cc(-c4ccccc4)ccc3N)nn2)cc1`, the inhibition was 16%.

As to `Nc1ccc(-c2cccs2)cc1NC(=O)c1ccc(-c2cn(CCc3cccc(C(F)(F)F)c3)nn2)s1`, the inhibition was determined as 0%.

In the case of `Nc1ccc(-c2cccs2)cc1NC(=O)CCc1cn(CCc2cccc3ccccc23)nn1`, the inhibition was determined as 0%.

Take `Nc1ccc(-c2ccc(F)cc2)cc1NC(=O)c1cn(Cc2nc3ccccc3[nH]2)nn1`: the inhibition was 37%.

Consider `Nc1ccc(-c2ccccc2)cc1NC(=O)CCc1cn(CCc2ccsc2)nn1`, for which the inhibition came to 0%.

Turning to `Nc1ccc(-c2ccsc2)cc1NC(=O)c1cn(CCc2ccc(C(=O)O)cc2)nn1`, the inhibition turned out to be 18%.

Turning to `Nc1ccc(-c2cccnc2)cc1NC(=O)CCc1cn(Cc2ccc(Oc3ccccc3)cc2)nn1`, the inhibition amounted to 0%.

For `Nc1ccc(-c2ccccc2)cc1NC(=O)CCc1cn(CCCCCC(=O)O)nn1`, the inhibition came to 0%.

For `Nc1ccc(-c2ccccc2)cc1NC(=O)c1cn(CCc2ccc(C(F)(F)F)cc2)nn1`, the inhibition amounted to 0%.

As for `Nc1ccc(-c2ccc(F)cc2)cc1NC(=O)c1cn(CCc2ccsc2)nn1`, the inhibition was determined as 1%.

Take `Nc1ccc(-c2cccnc2)cc1NC(=O)CCc1cn(CC(=O)Nc2ccc(F)cc2)nn1`: the inhibition turned out to be 0%.

With `Nc1ccc(-c2cccs2)cc1NC(=O)c1ccc(-c2cn(Cc3cccc(C(=O)O)c3)nn2)s1`, the inhibition stood at 25%.

Regarding `Nc1ccc(-c2ccccc2)cc1NC(=O)c1cn(/C=C/c2ccccc2)nn1`, the inhibition came to 3%.

With `Nc1ccc(-c2cccs2)cc1NC(=O)CCc1cn(CC(=O)c2ccccc2)nn1`, the inhibition amounted to 13%.

Turning to `Nc1ccc(-c2cccs2)cc1NC(=O)c1cccc(-c2cn(CCCCCc3ccccc3)nn2)c1`, the inhibition came out at 0%.

As to `Nc1ccc(-c2cccs2)cc1NC(=O)c1ccc(-c2cn(CCCCCc3ccccc3)nn2)cc1`, the inhibition was found to be 0%.

In the case of `Nc1ccc(-n2cc(CCC(=O)Nc3cc(-c4ccccc4)ccc3N)nn2)cc1`, the inhibition was 18%.

As for `Nc1ccc(-c2ccsc2)cc1NC(=O)CCc1cn(CC(=O)Nc2ccc(F)cc2)nn1`, the inhibition came to 14%.

Take `Nc1ccc(-c2ccsc2)cc1NC(=O)CCc1cn(Cc2ccc3ccccc3c2)nn1`: the inhibition was determined as 16%.

In the case of `Nc1ccc(-c2ccccc2)cc1NC(=O)c1cn(CCCCCC(=O)O)nn1`, the inhibition is 0%.

In the case of `Nc1ccc(-c2ccsc2)cc1NC(=O)c1cn(CCCCCCC(=O)O)nn1`, the inhibition came out at 8%.

For the molecule `Nc1ccc(-c2cccnc2)cc1NC(=O)CCc1cn(Cc2cccc3ccccc23)nn1`, the inhibition was found to be 12%.

`Nc1ccc(-c2ccccc2)cc1NC(=O)c1cn(CS(=O)(=O)c2ccccc2)nn1`: the inhibition was determined as 0%.

Consider `COc1ccc(Cn2cc(C(=O)Nc3cc(-c4ccc(F)cc4)ccc3N)nn2)cc1`, for which the inhibition turned out to be 19%.

Turning to `Nc1ccc(-c2ccc(F)cc2)cc1NC(=O)c1cn(Cc2cccc(-c3ccccc3)c2)nn1`, the inhibition stood at 0%.

Regarding `COc1ccccc1CCn1cc(CCC(=O)Nc2cc(-c3ccc(F)cc3)ccc2N)nn1`, the inhibition was found to be 10%.

On to `Nc1ccc(-c2cccs2)cc1NC(=O)CCc1cn(-c2ccccc2-c2ccccc2)nn1`, for which the inhibition is 0%.

As to `Nc1ccc(-c2cccs2)cc1NC(=O)CCc1cn(CCc2cccc(F)c2)nn1`, the inhibition amounted to 5%.

Regarding `Nc1ccc(-c2cccs2)cc1NC(=O)c1ccc(-c2cn(CCc3ccc(C(F)(F)F)cc3)nn2)cc1`, the inhibition stood at 0%.

As for `Nc1ccc(-c2cccnc2)cc1NC(=O)CCc1cn(Cc2ccc(OC(F)(F)F)cc2)nn1`, the inhibition was determined as 3%.

Turning to `Nc1ccc(-c2ccsc2)cc1NC(=O)c1cn(CCc2cccc(Cl)c2)nn1`, the inhibition was 0%.

Turning to `Cc1cccc(C)c1NC(=O)Cn1cc(-c2cccc(C(=O)Nc3cc(-c4cccs4)ccc3N)c2)nn1`, the inhibition was 8%.

Consider `Nc1ccc(-c2cccs2)cc1NC(=O)c1cccc(-c2cn(CC3CCCCC3)nn2)c1`, for which the inhibition was 0%.

On to `Nc1ccc(-c2ccsc2)cc1NC(=O)c1cn(CCN2CCOCC2)nn1`, for which the inhibition came out at 0%.

For `Cc1ccc(-n2cc(CCC(=O)Nc3cc(-c4ccsc4)ccc3N)nn2)cc1C`, the inhibition is 0%.

Regarding `Nc1ccc(-c2ccccc2)cc1NC(=O)CCc1cn(CCc2ccccc2[N+](=O)[O-])nn1`, the inhibition turned out to be 13%.

Regarding `COc1ccc(-n2cc(C(=O)Nc3cc(-c4cccs4)ccc3N)nn2)cc1`, the inhibition is 6%.

On to `Nc1ccc(-c2cccs2)cc1NC(=O)CCc1cn(CCc2ccc([N+](=O)[O-])cc2)nn1`, for which the inhibition is 27%.

Turning to `Nc1ccc(-c2cccnc2)cc1NC(=O)CCc1cn(CCCCC(=O)O)nn1`, the inhibition was 0%.

For the molecule `Nc1ccc(-c2cccs2)cc1NC(=O)c1cn(CCCCCc2ccccc2)nn1`, the inhibition worked out at 1%.

Take `Nc1ccc(-c2ccsc2)cc1NC(=O)CCc1cn(CCCc2ccccc2)nn1`: the inhibition amounted to 19%.

As for `Nc1ccc(-c2cccs2)cc1NC(=O)c1cn(CCc2cccc3ccccc23)nn1`, the inhibition amounted to 0%.

`Nc1ccc(-c2ccc(F)cc2)cc1NC(=O)CCc1cn(/C=C/c2ccccc2)nn1`: the inhibition was determined as 3%.

Consider `Nc1ccc(-c2cccs2)cc1NC(=O)c1ccc(-c2cn(CCN3CCOCC3)nn2)s1`, for which the inhibition was determined as 69%.

On to `Nc1ccc(-c2cccs2)cc1NC(=O)CCc1cn(/C=C/c2ccccc2)nn1`, for which the inhibition was found to be 24%.
